The text below walks through data of the supplement of paper PMC11281043.

In assay [1] the test system is Danio rerio embryo/larva. Nature of the assay: max % larvae dead across tested concentrations; max tested concentration (log10 uM): 1.60206; higher = more toxic; extreme values may be limits of the assay. To be noted: exposure: 6-8 hpf to 5 dpf, scored at 6 dpf.
Assay [2] concerns Danio rerio embryo/larva. Put plainly: max % larvae unhatched across tested concentrations; max tested concentration (log10 uM): 1.60206; higher = more toxic. Conditions: exposure: 6-8 hpf to 5 dpf, scored at 6 dpf.
Assay [3] deals with Danio rerio embryo/larva. Nature of the assay: max % larvae with any abnormality across tested concentrations; max tested concentration (log10 uM): 1.60206; higher = more toxic; extreme values may be limits of the assay. To be noted: exposure: 6-8 hpf to 5 dpf, scored at 6 dpf.
For assay [4], the system named is Danio rerio embryo/larva. Put plainly: max % larvae unhatched across tested concentrations; max tested concentration (log10 uM): 2; higher = more toxic. To be noted: exposure: 6-8 hpf to 5 dpf, scored at 6 dpf.
In assay [5] the test system is Danio rerio embryo/larva. Put plainly: BMC swim bladder non-inflation; higher = less potent. Conditions: exposure: 6-8 hpf to 5 dpf, scored at 6 dpf. As for the experimental part:
(§1)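 Zebrafish embryos (with chorion) were exposed from 6-8 hpf to each PFAS (8-point half-log series, top concentration up to 100 uM, 0.4% DMSO, sealed plates, 26 C; n = 6 embryos per concentration), rinsed at 5 dpf and scored at 6 dpf by two blinded observers for mortality, hatching and malformations. Endpoint scores are the % of living larvae affected (dead larvae excluded; […]). Curves were fitted with tcpl (cutoff 16%), and the BMC is the concentration at a benchmark response of 21.6%.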

In assay [6] the test system is Danio rerio embryo/larva. Nature of the assay: BMC any abnormality; max tested concentration (log10 uM): 2; higher = less potent. To be noted: exposure: 6-8 hpf to 5 dpf, scored at 6 dpf. As for the experimental part:
as §1

In assay [7] the test system is Danio rerio embryo/larva. Put plainly: BMC mortality; max tested concentration (log10 uM): 2; higher = less potent. Conditions: exposure: 6-8 hpf to 5 dpf, scored at 6 dpf. As for the experimental part:
as §1

Assay [8] has as its system Danio rerio embryo/larva. Put plainly: BMC craniofacial defects; higher = less potent. Conditions: exposure: 6-8 hpf to 5 dpf, scored at 6 dpf. Here is the method: as §1
The test system of assay [9] is Danio rerio embryo/larva. Put plainly: max % larvae with any abnormality across tested concentrations; max tested concentration (log10 uM): 2; higher = more toxic; extreme values may be limits of the assay. To be noted: exposure: 6-8 hpf to 5 dpf, scored at 6 dpf.
For assay [10], the system named is Danio rerio embryo/larva. Put plainly: max % larvae dead across tested concentrations; max tested concentration (log10 uM): 2; higher = more toxic; extreme values may be limits of the assay. Conditions: exposure: 6-8 hpf to 5 dpf, scored at 6 dpf.
The test system of assay [11] is Danio rerio embryo/larva. Nature of the assay: BMC abnormal position; higher = less potent. To be noted: exposure: 6-8 hpf to 5 dpf, scored at 6 dpf. Here is the method:
as §1

Assay [12] relates to Danio rerio embryo/larva. Nature of the assay: BMC edema; higher = less potent. Conditions: exposure: 6-8 hpf to 5 dpf, scored at 6 dpf. Here is the method: as §1
Assay [13] deals with Danio rerio embryo/larva. Nature of the assay: max % larvae with any abnormality across tested concentrations; max tested concentration (log10 uM): 1.30103; higher = more toxic; extreme values may be limits of the assay. To be noted: exposure: 6-8 hpf to 5 dpf, scored at 6 dpf.
For assay [14], the system named is Danio rerio embryo/larva. Nature of the assay: max % larvae unhatched across tested concentrations; max tested concentration (log10 uM): 1.30103; higher = more toxic. To be noted: exposure: 6-8 hpf to 5 dpf, scored at 6 dpf.
Assay [15] has as its system Danio rerio embryo/larva. Put plainly: max % larvae dead across tested concentrations; max tested concentration (log10 uM): 1.30103; higher = more toxic; extreme values may be limits of the assay. Conditions: exposure: 6-8 hpf to 5 dpf, scored at 6 dpf.
Assay [16] concerns Danio rerio embryo/larva. Put plainly: max % larvae unhatched across tested concentrations; max tested concentration (log10 uM): 1.90309; higher = more toxic. To be noted: exposure: 6-8 hpf to 5 dpf, scored at 6 dpf.
Assay [17] deals with Danio rerio embryo/larva. Put plainly: BMC blood pooling; max tested concentration (log10 uM): 1.90309; higher = less potent. To be noted: exposure: 6-8 hpf to 5 dpf, scored at 6 dpf. Here is the method:
as §1

Assay [18] relates to Danio rerio embryo/larva. Nature of the assay: BMC any abnormality; max tested concentration (log10 uM): 1.90309; higher = less potent. To be noted: exposure: 6-8 hpf to 5 dpf, scored at 6 dpf. Here is the method:
as §1

For assay [19], the system named is Danio rerio embryo/larva. Put plainly: BMC tail defects; max tested concentration (log10 uM): 1.90309; higher = less potent. Conditions: exposure: 6-8 hpf to 5 dpf, scored at 6 dpf. Here is the method:
as §1

Assay [20] concerns Danio rerio embryo/larva. Put plainly: max % larvae with any abnormality across tested concentrations; max tested concentration (log10 uM): 1.90309; higher = more toxic; extreme values may be limits of the assay. Conditions: exposure: 6-8 hpf to 5 dpf, scored at 6 dpf.
Assay [21] deals with Danio rerio embryo/larva. Nature of the assay: BMC any abnormality; max tested concentration (log10 uM): 1.60206; higher = less potent. Conditions: exposure: 6-8 hpf to 5 dpf, scored at 6 dpf. Here is the method: as §1
The test system of assay [22] is Danio rerio embryo/larva. Nature of the assay: BMC mortality; max tested concentration (log10 uM): 1.60206; higher = less potent. Conditions: exposure: 6-8 hpf to 5 dpf, scored at 6 dpf. As for the experimental part:
as §1

In assay [23] the test system is Danio rerio embryo/larva. Nature of the assay: BMC blood pooling; max tested concentration (log10 uM): 2; higher = less potent. To be noted: exposure: 6-8 hpf to 5 dpf, scored at 6 dpf. As for the experimental part:
as §1

Assay [24] relates to Danio rerio embryo/larva. Nature of the assay: BMC spinal defects; higher = less potent. Conditions: max tested concentration (log10 uM): 2; exposure: 6-8 hpf to 5 dpf, scored at 6 dpf. Here is the method:
as §1

Assay [25] concerns Danio rerio embryo/larva. Nature of the assay: BMC tail defects; max tested concentration (log10 uM): 2; higher = less potent. Conditions: exposure: 6-8 hpf to 5 dpf, scored at 6 dpf. As for the experimental part:
as §1

[26] abbreviates: max tested concentration (log10 uM): 2.
[27] abbreviates: max tested concentration (log10 uM): 1.90309.

As to `CCCCCCCCC(F)(F)C(F)(F)C(F)(F)C(F)(F)C(F)(F)C(F)(F)F` [1-(Perfluorohexyl)octane], the “max % larvae dead across tested concentrations” value in [1] was 0%. Besides, in [2], the “max % larvae unhatched across tested concentrations” value is 0%. In [3], the max % larvae turned out to be 0%.
`O=C(O)C(F)(F)C(F)(F)C(F)(F)C(F)(F)C(F)(F)C(F)(F)C(F)(F)C(F)(F)Cl` [9-Chloro-perfluorononanoic acid]: the “max % larvae unhatched across tested concentrations” value in [4] was determined as 0%. Moreover, the “BMC swim bladder non-inflation” value in assay [5] (setting [26]) worked out at 6.38 µM. In addition, in assay [6], the BMC any abnormality was 8.75 µM. Further, in [7], the BMC mortality turned out to be 31.1 µM. In [8] (setting [26]), this molecule yielded a BMC craniofacial defects of 31.1 µM. The molecule further gave a max % larvae in assay [9] of 100%. Moreover, the “max % larvae dead across tested concentrations” value in assay [10] was found to be 100%. For the same molecule, the BMC abnormal position in assay [11] (setting [26]) came out at 80.3 µM. Further, the BMC edema in assay [12] (setting [26]) was 17.5 µM.
On to `O=C(O)C(F)(F)C(F)(F)C(F)(F)C(F)(F)C(F)(F)C(F)(F)C(F)(F)C(F)(F)C(F)(F)C(F)(F)C(F)(F)C(F)(F)C(F)(F)F` [Perfluorotetradecanoic acid], for which the max % larvae in assay [13] is 12.5%. Also, the “max % larvae unhatched across tested concentrations” value in [14] is 0%. For the same molecule, in assay [15], the “max % larvae dead across tested concentrations” value is 0%.
Consider `CC(C)(C)C(=O)CC(=O)C(F)(F)C(F)(F)C(F)(F)F` [(Heptafluorobutanoyl)pivaloylmethane], for which the “max % larvae unhatched across tested concentrations” value in assay [4] was determined as 0%. Also, the “BMC swim bladder non-inflation” value in [5] (setting [26]) came out at 23 µM. In [6], the BMC any abnormality is 23.4 µM. Besides, the BMC mortality in assay [7] worked out at 31.2 µM. In addition, in assay [8] (setting [26]), the BMC craniofacial defects turned out to be 26.6 µM. The molecule also had a max % larvae in assay [9] of 100%. Besides, the “max % larvae dead across tested concentrations” value in assay [10] was determined as 58.3%. In addition, in assay [11] (setting [26]), the BMC abnormal position was 33.1 µM. In assay [12] (setting [26]), this molecule registered a BMC edema of 25.6 µM.
`O=S(=O)(O)C(F)(F)C(F)(F)C(F)(F)C(F)(F)C(F)(F)C(F)(F)F` [Perfluorohexanesulfonic acid]: in assay [4], the “max % larvae unhatched across tested concentrations” value is 0%. Besides, the “BMC swim bladder non-inflation” value in assay [5] (setting [26]) is 34.1 µM. The same molecule registered a BMC any abnormality in assay [6] of 30.2 µM. The same molecule returned a BMC craniofacial defects in assay [8] (setting [26]) of 78.9 µM. The max % larvae in assay [9] came out at 100%. In assay [11] (setting [26]), this molecule yielded a BMC abnormal position of 90.6 µM. In assay [12] (setting [26]), this molecule yielded a BMC edema of 31.7 µM.
Take `O=S(=O)(O)C(F)(F)C(F)(F)C(F)(F)C(F)(F)C(F)(F)C(F)(F)C(F)(F)F` [Perfluoroheptanesulfonic acid]: the “max % larvae unhatched across tested concentrations” value in [16] worked out at 0%. For the same molecule, in assay [17], the BMC blood pooling is 61 µM. In addition, the “BMC swim bladder non-inflation” value in assay [5] (setting [27]) is 15.6 µM. Moreover, the BMC any abnormality in assay [18] was found to be 15.6 µM. This molecule also gave a BMC craniofacial defects in [8] (setting [27]) of 18.1 µM. Further, the BMC tail defects in [19] was 27 µM. In assay [20], this molecule came in with a max % larvae of 100%. The BMC abnormal position in assay [11] (setting [27]) amounted to 17.7 µM. In addition, the BMC edema in [12] (setting [27]) was 18.5 µM.
Turning to `FC(F)(F)C(F)(C(F)(F)F)C(F)(F)C(F)(F)CC1CO1` (stereo unspecified) [3-(Perfluoro-3-methylbutyl)-1,2-propenoxide], the “max % larvae dead across tested concentrations” value in assay [1] was 0%. Besides, the “max % larvae unhatched across tested concentrations” value in assay [2] turned out to be 0%. In addition, the max % larvae in [3] came out at 0%.
In [21], `NCC(F)(F)C(F)(F)C(F)(F)C(F)(F)C(F)(F)C(F)(F)C(F)(F)C(F)(F)F` [1H,1H-Perfluorononylamine] gave a BMC any abnormality of 27.2 µM. The “max % larvae dead across tested concentrations” value in assay [1] is 66.7%. For the same molecule, the “max % larvae unhatched across tested concentrations” value in assay [2] worked out at 0%. This molecule also displayed a BMC mortality in assay [22] of 29.9 µM. For the same molecule, the max % larvae in [3] was 100%.
Regarding `O=S(=O)(O)C(F)(F)C(F)(F)C(F)(F)C(F)(F)C(F)(F)C(F)(F)C(F)(F)C(F)(F)F` [Potassium perfluorooctanesulfonate], in assay [23], the BMC blood pooling was 10.5 µM. In addition, the “max % larvae unhatched across tested concentrations” value in assay [4] was 0%. Further, the “BMC swim bladder non-inflation” value in assay [5] (setting [26]) came to 2.81 µM. This molecule also displayed a BMC any abnormality in assay [6] of 2.77 µM. In addition, the BMC craniofacial defects in [8] (setting [26]) came to 8.25 µM. In [24], the BMC spinal defects came to 26 µM. The same molecule showed a max % larvae in [9] of 100%. The molecule also had a BMC tail defects in assay [25] of 27.8 µM. This molecule also yielded a BMC abnormal position in assay [11] (setting [26]) of 3.99 µM. In [12] (setting [26]), this molecule returned a BMC edema of 4.65 µM.
With `FC(F)(F)C(F)(F)C(F)(F)C(F)(F)C(F)(F)C(F)(F)C(F)(F)C(F)(F)CCS` [2-(Perfluorooctyl)ethanthiol], in assay [1], the “max % larvae dead across tested concentrations” value came out at 0%. Also, the “max % larvae unhatched across tested concentrations” value in assay [2] amounted to 0%. In assay [3], this molecule returned a max % larvae of 10.4%.
